These results are taken from ChEMBL document CHEMBL1123968, “Isoprenoid (phosphinylmethyl)phosphonates as inhibitors of squalene synthetase” (J Med Chem, 1988).

Molecules are shown by their SMILES.

This assay concerns the target T1, Squalene synthase (Rattus norvegicus, UniProt Q02769).
T1 sequence (Q02769 whole entry): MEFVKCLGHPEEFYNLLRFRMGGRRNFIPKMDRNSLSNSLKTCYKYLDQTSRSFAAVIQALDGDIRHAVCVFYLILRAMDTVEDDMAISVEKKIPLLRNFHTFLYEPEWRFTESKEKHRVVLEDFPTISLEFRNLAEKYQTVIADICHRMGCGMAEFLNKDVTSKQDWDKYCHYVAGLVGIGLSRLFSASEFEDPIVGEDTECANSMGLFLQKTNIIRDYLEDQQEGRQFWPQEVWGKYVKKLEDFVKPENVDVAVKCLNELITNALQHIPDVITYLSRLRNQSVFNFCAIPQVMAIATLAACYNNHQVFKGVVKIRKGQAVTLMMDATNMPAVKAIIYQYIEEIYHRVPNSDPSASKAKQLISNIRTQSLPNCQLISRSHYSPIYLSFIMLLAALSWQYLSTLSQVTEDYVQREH
In words: Inhibition of squalene synthetase was determined in rat liver microsomes. More on the design: species or system Microsome. To be noted: read-out: I50. For orientation: Microsomes from liver hold many membrane-bound enzymes, among them those of drug oxidation.
As to `CC(C)=CCC/C(C)=C/CC/C(C)=C/CCP(=O)(O)CP(=O)(O)O`, the IC50 stood at 31.5 µM.

As to `CC(C)=CCC/C(C)=C/CC/C(C)=C/CCCP(=O)(O)CP(=O)(O)O`, the IC50 is 67 µM.

Turning to `CC(C)=CCC/C(C)=C/CC/C(C)=C/C=C/P(=O)(O)C(F)(F)P(=O)(O)O`, the IC50 was determined as 15.5 µM.

With `COP(=O)(O)CP(=O)(O)CC/C=C(\C)CC/C=C(\C)CCC=C(C)C`, the IC50 was determined as 177 µM.

For `CC(C)=CCC/C(C)=C/CC/C(C)=C/CCP(=O)(O)OP(=O)(O)O`, the IC50 stood at 42 µM.

In the case of `CC(C)=CCC/C(C)=C/CC/C(C)=C/CCP(=O)(O)C(F)(F)P(=O)(O)O`, the IC50 worked out at 29.9 µM.

On to `CC(C)=CCC/C(C)=C/CC/C(C)=C/C=C/P(=O)(O)CP(=O)(O)O`, for which the IC50 was found to be 12.2 µM.
